Read-outs that look alike come from different tables or passages of the source.
Experiments:
human 5-HT2A receptor [1] = target: T1, human 5-HT2A receptor (Homo sapiens, UniProt P28223); design: expressed in transfected cells; host or cells: HEK 293 (transient), membrane preparations; conditions: read-out: 5-HT2A Ki, [3H]ketanserin, cited from earlier work
male C57BL/6 J mice [2] = assay: Head-twitch response (HTR), magnetometer coil recording; assay type: in vivo; conditions: for HTR Counts (Mean ± SEM): 30 min; for ED50: Mus musculus, 0.5 h, HTR, 30 min recording, male C57BL/6 J mice; for ED50 / effect on HTR counts (in words): IP; for maximum number of head twitches (mean ± SEM): during the 30-min assessment period; for effect on HTR counts (in words): versus vehicle/baseline
Procedure: Male C57BL/6 J mice (Jackson Laboratory, Bar Harbor, ME) were housed in a vivarium at the University of California San Diego (UCSD), which is an AAALAC-approved animal facility that complies with Federal and State requirements for care and treatment of laboratory animals. The mice (6–8 weeks old) were housed in a climate-controlled room with a reversed light-cycle (lights on at 19:00 h, off at 07:00 h) up to 4 animals per cage. Food and water were provided ad libitum, except during behavioral testing which occurred between 10:00 and 18:00 h. All experiments were conducted according to NIH guidelines and were approved by the UCSD animal care committee.
Head movement was recorded using a head-mounted magnet and a magnetometer coil (Halberstadt and Geyer [2013]). Briefly, mice were anesthetized, a small incision was made in the scalp, and a neodymium magnet was attached to the dorsal surface of the cranium using dental cement. Following a 1–2-week recovery period, behavioral experiments were conducted in a well-lit room with at least 7 days between sessions to avoid any carryover effects. Mice were treated with vehicle or test compound and then placed in a glass cylinder surrounded by a magnetometer coil and activity was recorded for 30 min. All test substances were administered IP dissolved in saline using an injection volume of 5 mL/kg. Coil voltage was filtered (5–10 kHz lowpass), digitized (20 kHz sampling rate), and saved to disk using a Powerlab/8SP with LabChart v 7.3.2 (ADInstruments, Colorado Springs, CO). To detect head twitches, events in the recordings were converted into scalograms using a wavelet transform and then the images were classified using a multistage approach combining the deep convolutional neural network (CNN) ResNet-50 with a support vector machine (SVM) algorithm (Halberstadt [2020]). HTR counts were analyzed using a one-way Welch analysis of variance (ANOVA). Post hoc pairwise comparisons were performed using Dunnett’s test. […] Median effective doses (ED50 values) and 95% confidence intervals were calculated using nonlinear regression (Prism ver. 9.0.2, GraphPad Software Inc, San Diego, CA, USA).

rats [3] = test system: rats; design: method as in Eshleman et al. 2014; Fantegrossi et al. 2005; conditions: rats trained to discriminate LSD or DMT; ref Eshleman et al. 2014; Fantegrossi et al. 2005; cited from earlier work
mice = conditions: ref Fantegrossi et al. 2005, cited from earlier work
rats [4] = test system: rats; design: method as in Khorana et al. 2004; Li et al. 2010, 2008; conditions: ref Khorana et al. 2004, Li et al. 2010, 2008; cited from earlier work
monkeys = test system: monkeys; design: method as in Khorana et al. 2004; Li et al. 2010, 2008; conditions: ref Khorana et al. 2004, Li et al. 2010, 2008; cited from earlier work
humans = conditions: p.o.; ref Shulgin and Shulgin 1991; Trachsel et al. 2013; cited from earlier work
human 5-HT2A receptor [5] = target: T1, human 5-HT2A receptor; design: expressed in transfected cells; host or cells: HEK 293 (transient); method as in Luethi et al. 2018; conditions: 5-HT2A calcium flux assays; ref Luethi et al. 2018; cited from earlier work
male C57BL/6 J mice [6] = test system: male C57BL/6 J mice; design: method as in Halberstadt et al. (2019a); conditions: HTR, previous experiment using similar methods; ref Halberstadt et al. (2019a); cited from earlier work
[7] = read-out: ED50 µmol/kg (95% CI)

T1 sequence (P28223 whole entry): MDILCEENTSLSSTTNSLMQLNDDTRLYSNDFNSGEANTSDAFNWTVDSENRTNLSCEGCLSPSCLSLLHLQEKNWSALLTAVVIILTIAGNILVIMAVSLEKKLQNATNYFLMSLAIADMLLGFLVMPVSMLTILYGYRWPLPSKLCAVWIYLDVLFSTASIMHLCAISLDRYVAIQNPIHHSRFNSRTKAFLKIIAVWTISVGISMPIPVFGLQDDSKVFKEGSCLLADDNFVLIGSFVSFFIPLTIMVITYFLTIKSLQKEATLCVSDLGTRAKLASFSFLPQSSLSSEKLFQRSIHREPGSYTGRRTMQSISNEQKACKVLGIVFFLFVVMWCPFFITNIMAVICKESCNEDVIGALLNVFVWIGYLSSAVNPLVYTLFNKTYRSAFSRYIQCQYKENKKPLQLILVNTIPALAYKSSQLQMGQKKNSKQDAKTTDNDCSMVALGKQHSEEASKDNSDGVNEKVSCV

SMILES | HTR Counts (Mean ± SEM) (male C57BL/6 J mice [2]; 0.1 mg/kg IP) | HTR Counts (Mean ± SEM) (male C57BL/6 J mice [2]; 0.3 mg/kg IP) | HTR Counts (Mean ± SEM) (male C57BL/6 J mice [2]; 1 mg/kg IP) | HTR Counts (Mean ± SEM) (male C57BL/6 J mice [2]; 3 mg/kg IP) | ED50 (male C57BL/6 J mice [2]; [7]) | ED50 (male C57BL/6 J mice [2]; read-out: ED50 mg/kg (95% CI)) | maximum number of head twitches (mean ± SEM) (male C57BL/6 J mice [2]) | substitution for training drug (in words) (rats [3]) | Ki (human 5-HT2A receptor [1]; ref Luethi et al. (2018)) | effect on HTR counts (in words) (male C57BL/6 J mice [2]) | 5-HT2A agonist efficacy (in words) (human 5-HT2A receptor [5]) | further results
CCSc1cc(OC)c(CCN)cc1OC.Cl [Compound 2C-T-2, 2,5-dimethoxy-4-ethylthiophenethylamine hydrochloride] | 12.2 ± 1.9 | 28.4 ± 4.7 | 65.2 ± 5.9 | 36.8 ± 11.5 | 1.44 µmol/kg | 0.4 mg/kg | 65.2 ± 5.9 | partial generalization |  |  |  | Ki (human 5-HT2A receptor [1]; ref Rickli et al. (2015)): 9 nM
CCCSc1cc(OC)c(CCN)cc1OC.Cl [Compound 2C-T-7, 2,5-dimethoxy-4-n-propylthiophenethylamine hydrochloride] | 11.8 ± 1.3 | 18.4 ± 3.5 | 70.2 ± 10.6 | 58.6 ± 9.7 | 2.12 µmol/kg | 0.62 mg/kg | 70.2 ± 10.6 | partial generalization | 5.3 nM |  |  | HTR after pretreatment with 5-HT2A antagonist M100907 (in words) (mice; mice pretreated with M100907): blocked; induction of HTR (in words) (mice; mice): induce the head-twitch response; effects in DOM-trained animals (in words) (rats [4]): hallucinogen-like effects; effects in DOM-trained animals (in words) (monkeys): hallucinogen-like effects; Human active dose range (humans): 10 to 30 mg
COc1cc(SCc2ccccc2)c(OC)cc1CCN.Cl [Compound 2C-T-27, 4-benzylthio-2,5-dimethoxyphenethylamine hydrochloride] |  |  |  | 9.0 ± 0.8 | 7.3 µmol/kg | 2.48 mg/kg |  |  | 1.6 nM | relatively weak | low efficacy partial agonists | HTR Counts (Mean ± SEM) (male C57BL/6 J mice [2]; 1.5 mg/kg IP): 6.0 ± 1.6; HTR Counts (Mean ± SEM) (male C57BL/6 J mice [2]; 6 mg/kg IP): 12.8 ± 2.0; HTR Counts (Mean ± SEM) (male C57BL/6 J mice [2]; 12 mg/kg IP): 10.8 ± 3.6; HTR Counts (Mean ± SEM) (male C57BL/6 J mice [2]; 24 mg/kg IP): 5.4 ± 2.0
COc1cccc(CSc2cc(OC)c(CCN)cc2OC)c1.Cl [Compound 2C-T-33, 2,5-dimethoxy-4-(3-methoxybenzylthio)phenethylamine hydrochloride] |  | 8.6 ± 2.2 | 5.0 ± 2.8 | 9.6 ± 1.7 |  |  |  |  | 1.7 nM | did not produce a significant increase in HTR counts | low efficacy partial agonists | HTR Counts (Mean ± SEM) (male C57BL/6 J mice [2]; 10 mg/kg IP): 7.8 ± 0.8
COc1cc(OC)c(OC)cc1CC(C)N (stereo not drawn) [TMA-2, 2,4,5-trimethoxyamphetamine] |  |  |  |  |  |  |  |  |  |  |  | ED50 µmol/kg (95% CI) (male C57BL/6 J mice [6]): 12.4 (8.6–17.8) ^[1] µmol/kg; ED50 mg/kg (95% CI) (male C57BL/6 J mice [6]): 2.79 (1.94–4.01) ^[1] mg/kg

Source: article PMC9816194, “Use of the head-twitch response to investigate the structure–activity relationships of 4-thio-substituted 2,5-dimethoxyphenylalkylamines” (Psychopharmacology, 2022)
